Source: the NIST ThermoML archive (doi:10.1007/s10765-011-1052-5)
Values joined by “and” are separate entries in the source; they are usually repeats but may differ in a detail not shown here. Identical values can stand only once. Numbers after ± are expanded uncertainties.

Conditions: Fluid (supercritical or subcritical phases), Hot wire method

[He] [helium]
Conditions | thermal conductivity
323.19 K, 5030 kPa | 0.1676 ± 0.0038 W/m/K
323.19 K, 10055 kPa | 0.1696 ± 0.0038 W/m/K and 0.1695 ± 0.0038 W/m/K and 0.1694 ± 0.0038 W/m/K
323.19 K, 29885 kPa | 0.1784 ± 0.004 W/m/K and 0.1786 ± 0.004 W/m/K
323.19 K, 29886 kPa | 0.1782 ± 0.004 W/m/K
323.19 K, 29887 kPa | 0.1783 ± 0.004 W/m/K
323.2 K, 5030 kPa | 0.1674 ± 0.0038 W/m/K and 0.1675 ± 0.0038 W/m/K and 0.1677 ± 0.0038 W/m/K
323.21 K, 50067 kPa | 0.187 ± 0.0042 W/m/K
323.21 K, 50070 kPa | 0.1872 ± 0.0042 W/m/K
323.21 K, 50072 kPa | 0.1872 ± 0.0042 W/m/K
323.21 K, 50075 kPa | 0.187 ± 0.0042 W/m/K
323.21 K, 70102 kPa | 0.196 ± 0.0044 W/m/K
323.21 K, 70105 kPa | 0.196 ± 0.0044 W/m/K
323.21 K, 70109 kPa | 0.1961 ± 0.0044 W/m/K
323.21 K, 70112 kPa | 0.1964 ± 0.0044 W/m/K
323.21 K, 98251 kPa | 0.2089 ± 0.0047 W/m/K
323.21 K, 98254 kPa | 0.2085 ± 0.0047 W/m/K
323.21 K, 98259 kPa | 0.2085 ± 0.0047 W/m/K
323.21 K, 98263 kPa | 0.2086 ± 0.0047 W/m/K
373.22 K, 5137 kPa | 0.1853 ± 0.0042 W/m/K
373.22 K, 30213 kPa | 0.1948 ± 0.0044 W/m/K
373.22 K, 30214 kPa | 0.1948 ± 0.0044 W/m/K and 0.1945 ± 0.0044 W/m/K
373.22 K, 49990 kPa | 0.2028 ± 0.0045 W/m/K
373.22 K, 49992 kPa | 0.2028 ± 0.0045 W/m/K
373.22 K, 49994 kPa | 0.2033 ± 0.0046 W/m/K
373.23 K, 5137 kPa | 0.185 ± 0.0042 W/m/K and 0.1845 ± 0.0041 W/m/K
373.23 K, 10114 kPa | 0.1866 ± 0.0042 W/m/K and 0.1868 ± 0.0042 W/m/K
373.23 K, 69936 kPa | 0.2139 ± 0.0048 W/m/K and 0.2138 ± 0.0048 W/m/K
373.23 K, 69937 kPa | 0.214 ± 0.0048 W/m/K
373.23 K, 97514 kPa | 0.2284 ± 0.0051 W/m/K
373.23 K, 97516 kPa | 0.2277 ± 0.0051 W/m/K
373.23 K, 97527 kPa | 0.2275 ± 0.0051 W/m/K
473.27 K, 5260 kPa | 0.2166 ± 0.0049 W/m/K
473.27 K, 5261 kPa | 0.2169 ± 0.0049 W/m/K
473.27 K, 10172 kPa | 0.2187 ± 0.0049 W/m/K and 0.2183 ± 0.0049 W/m/K
473.27 K, 10173 kPa | 0.2193 ± 0.0049 W/m/K
473.27 K, 50076 kPa | 0.2321 ± 0.0052 W/m/K
473.27 K, 50078 kPa | 0.2322 ± 0.0052 W/m/K
473.27 K, 50080 kPa | 0.2317 ± 0.0052 W/m/K
473.27 K, 70131 kPa | 0.2428 ± 0.0054 W/m/K
473.27 K, 70135 kPa | 0.2422 ± 0.0054 W/m/K
473.27 K, 70138 kPa | 0.2419 ± 0.0054 W/m/K
473.27 K, 99148 kPa | 0.2558 ± 0.0057 W/m/K
473.27 K, 99151 kPa | 0.2549 ± 0.0057 W/m/K
473.27 K, 99156 kPa | 0.2552 ± 0.0057 W/m/K
473.28 K, 5261 kPa | 0.2173 ± 0.0049 W/m/K
473.28 K, 30084 kPa | 0.2252 ± 0.005 W/m/K
473.28 K, 30085 kPa | 0.2251 ± 0.005 W/m/K and 0.226 ± 0.0051 W/m/K
473.29 K, 99160 kPa | 0.2472 ± 0.0055 W/m/K
573.24 K, 30146 kPa | 0.2549 ± 0.0057 W/m/K
573.24 K, 50100 kPa | 0.2618 ± 0.0059 W/m/K
573.24 K, 70129 kPa | 0.2675 ± 0.006 W/m/K
573.24 K, 97066 kPa | 0.2798 ± 0.0063 W/m/K
573.24 K, 97071 kPa | 0.2805 ± 0.0063 W/m/K
573.24 K, 97072 kPa | 0.2792 ± 0.0063 W/m/K
573.25 K, 5197 kPa | 0.2478 ± 0.0056 W/m/K
573.25 K, 5199 kPa | 0.2472 ± 0.0055 W/m/K
573.25 K, 5200 kPa | 0.2477 ± 0.0055 W/m/K
573.25 K, 10292 kPa | 0.2503 ± 0.0056 W/m/K
573.25 K, 10294 kPa | 0.2496 ± 0.0056 W/m/K
573.25 K, 10295 kPa | 0.2496 ± 0.0056 W/m/K
573.25 K, 30146 kPa | 0.2552 ± 0.0057 W/m/K
573.25 K, 30149 kPa | 0.2558 ± 0.0057 W/m/K
573.25 K, 50095 kPa | 0.2609 ± 0.0058 W/m/K
573.25 K, 50100 kPa | 0.2599 ± 0.0058 W/m/K
573.25 K, 70160 kPa | 0.268 ± 0.006 W/m/K
573.25 K, 70165 kPa | 0.2662 ± 0.006 W/m/K
672.87 K, 98224 kPa | 0.3057 ± 0.0068 W/m/K
672.87 K, 98230 kPa | 0.3055 ± 0.0068 W/m/K
672.87 K, 98231 kPa | 0.3054 ± 0.0068 W/m/K
672.88 K, 30064 kPa | 0.2852 ± 0.0064 W/m/K
672.88 K, 30085 kPa | 0.2823 ± 0.0063 W/m/K
672.88 K, 50184 kPa | 0.2882 ± 0.0065 W/m/K
672.88 K, 70068 kPa | 0.293 ± 0.0066 W/m/K
672.88 K, 70074 kPa | 0.2949 ± 0.0066 W/m/K
672.88 K, 70081 kPa | 0.2948 ± 0.0066 W/m/K
672.89 K, 5417 kPa | 0.2774 ± 0.0062 W/m/K
672.89 K, 10409 kPa | 0.2788 ± 0.0062 W/m/K
672.89 K, 10412 kPa | 0.279 ± 0.0062 W/m/K
672.89 K, 10414 kPa | 0.2784 ± 0.0062 W/m/K
672.89 K, 30054 kPa | 0.2843 ± 0.0064 W/m/K
672.89 K, 50178 kPa | 0.2895 ± 0.0065 W/m/K
672.89 K, 50182 kPa | 0.2888 ± 0.0065 W/m/K
672.9 K, 5413 kPa | 0.2765 ± 0.0062 W/m/K
672.9 K, 5416 kPa | 0.277 ± 0.0062 W/m/K
771.89 K, 50118 kPa | 0.3162 ± 0.0071 W/m/K
771.89 K, 50125 kPa | 0.3184 ± 0.0071 W/m/K
771.89 K, 50128 kPa | 0.3182 ± 0.0071 W/m/K
771.89 K, 70299 kPa | 0.3237 ± 0.0072 W/m/K
771.89 K, 70303 kPa | 0.3173 ± 0.0071 W/m/K
771.89 K, 70305 kPa | 0.3224 ± 0.0072 W/m/K
771.89 K, 99452 kPa | 0.3302 ± 0.0074 W/m/K
771.89 K, 99460 kPa | 0.3299 ± 0.0074 W/m/K
771.89 K, 99462 kPa | 0.3321 ± 0.0074 W/m/K
771.9 K, 30345 kPa | 0.3126 ± 0.007 W/m/K
771.9 K, 30348 kPa | 0.3102 ± 0.0069 W/m/K
771.9 K, 30350 kPa | 0.313 ± 0.007 W/m/K
771.91 K, 10197 kPa | 0.3094 ± 0.0069 W/m/K
771.91 K, 10199 kPa | 0.3093 ± 0.0069 W/m/K
771.92 K, 5204 kPa | 0.3065 ± 0.0069 W/m/K
771.93 K, 3005 kPa | 0.3046 ± 0.0068 W/m/K
771.93 K, 3008 kPa | 0.3049 ± 0.0068 W/m/K
771.93 K, 5202 kPa | 0.3079 ± 0.0069 W/m/K
771.94 K, 1059 kPa | 0.2998 ± 0.0067 W/m/K
771.94 K, 1068 kPa | 0.3028 ± 0.0068 W/m/K
771.94 K, 1071 kPa | 0.3022 ± 0.0068 W/m/K
771.94 K, 1074 kPa | 0.304 ± 0.0068 W/m/K
771.94 K, 3001 kPa | 0.3012 ± 0.0067 W/m/K
771.94 K, 3003 kPa | 0.3055 ± 0.0068 W/m/K
